{"source": "patent US6991777B2", "about": "“Methods for in vivo evaluation of physiological conditions and/or organ or system function including methods to evaluate cardiopulmonary disorders such as chronic heart failure using polarized 129 Xe” (Medi-Physics, Inc., priority 2001, dated 2006)", "origin": "cited, not measured here", "key": {"[1]": {"conditions": "dogs, whole lung"}, "[2]": {"conditions": "after inhalation into the lungs"}}, "data": [{"smiles": "[Xe]", "note": "[polarized ^129Xe, Xenon-129]", "values": [{"measurement": "time constant τ (uptake and/or dissolved gas-exchange transit time), blood compartment", "setting": "[1]; blood compartment", "result": "~70", "unit": "ms"}, {"measurement": "time constant τ (uptake and/or dissolved gas-exchange transit time), tissue compartment", "setting": "[1]; tissue compartment", "result": "about 61 ms"}, {"measurement": "diffusion constant of xenon in water", "result": "about 2×10^−5 cm^2/s"}, {"measurement": "fraction of inhaled gas that transits into the pulmonary blood", "setting": "[2]", "result": "roughly 0.3 % per/second"}, {"measurement": "time until Xe begins to dissolve into the pulmonary blood stream", "setting": "[2]", "result": "under 100 ms"}]}]}
